Assay results taken from patent publication US10875898B2, “Bioactive protein, use thereof and method for its production” (Koppert B.V., priority 2014, dated 2020).

Assays:
Lotus japonicus = test: Rhizobium lotii on Lotus japonicus in vitro system, plant growth and nodule density; format: in vivo; details: HYTLO1 0.07 μM, 6PP 0.002 μM, 4 weeks after seeding; for plant growth promotion effect of Rhizobia on Lotus japonicus: HA 0.001 μM in MS media; for nodule formation (number of nodules per cm of root): HA 0.001 μM, with R. loti
Experimental: Wt+Rhz=treatment with R. loti, Wt-Rhz without R. loti. (D) Growth measured after 4 weeks, in the absence (cont) or presence of Rhizoba R. loti ((+) Rhiz). The purified molecules were added to the sterile MS media and poured into Petri dishes. Data were recorded 4 weeks after seeding of L. japonicus.
FIG. 18. […] (HYT=HYTLO1 at 0.07 μM, 6PP at 0.002 μM, HA=Harzianic Acid at 0.001 μM). Wt=control with R. loti without metabolites. The purified molecules were added to the sterile MS media and poured into Petri dishes. Average number of nodules per cm of root are indicated. Data were recorded 4 weeks after seeding of L. japonicus.
In order to test the effect of HYTLO1, as well as of the secondary metabolites HA and 6PP on the growth promotion activity of Rhizobia, such as Rhizobium sp., on legumimosae plants, we used a standard Rhizobium lotii on Lotus japonicus in vitro system (Barbulova et al., 2005, Functional Plant Biology, 32:529-536). Plant growth and nodule density on the roots were scored four weeks after seeding by comparing untreated controls and the various treatments.

cucumber = test: combined application of HYTLO1, HA and 6PP on cucumber seed germination and growth promotion; format: in vivo; set-up: Root length, increase % vs. Control / Plant fresh weight, increase % vs. Control / Plant dry weight, increase % vs. Control / plant height, increase % vs. Control: concentration or dose not given beside the values; details: for Plant dry weight / Root length (cm) / Plant fresh weight / plant height (cm): 30 days after seed coating; for Plant dry weight: SD +− 1.3 g; for Root length (cm): SD +− 2.1 cm; for Plant fresh weight: SD +− 2.5 g; for plant height (cm): drench 10^−7M 6PP and HA, 10^−8M HYTLO1, half or one third dose in combinations, SD +− 2.5 cm; for Seed germination (24 h): coated cucumber seeds on humid filter paper, SD +− 9%
Experimental: Tested metabolites include 6PP and Harzianic Acid, and experiments were performed on seed germination, stem or root elongation as well fresh/dry weight. The results shown in Table 1 were obtained by using cucumber seeds coated with the solutions of the tested compounds, that were then transferred in Petri dishes and left to germinate on filter humid paper. First seed germination was evaluated, then the germinated seedlings were transplanted into pots containing sterilised soil. Other two treatments with the purified molecules were performed at 10 days interval, by drenching the soil with the solutions at the final concentrations of 10^−7M for 6PP and HA, and 10^−8M for HYTLO1. In two-compounds application, half dose of each molecule was used. In three-compound applications, one third of the dose of each molecules was used. Each treatments consisted of 8 plants. Results were collected 30 days after seed coating. Control was produced by adding water instead of the molecule solutions. The effect of the minimal amounts of solvents eventually contained in HA and 6PP solution was preliminary tested, with no differences observed in comparison to water control. The results shown in Table 1 that all of the three tested molecules have a significant beneficial effect on seed germination and plant growth, and that they can be synergistically combined for enhanced effectiveness.

Compound	plant growth promotion effect of Rhizobia on Lotus japonicus (Lotus japonicus)	nodule formation (number of nodules per cm of root) (Lotus japonicus)	Plant dry weight (cucumber) [g]	Root length (cm) (cucumber)	Plant fresh weight (cucumber) [g]	plant height (cm) (cucumber)	Seed germination (24 h) (cucumber) [%]	Seed germination (24 h), increase % vs. Control (cucumber; vs water control)	Plant dry weight, increase % vs. Control (cucumber; vs water control, 30 days) [%]	Plant fresh weight, increase % vs. Control (cucumber; vs water control, 30 days) [%]	Root length, increase % vs. Control (cucumber; vs water control, 30 days) [%]	plant height, increase % vs. Control (cucumber; vs water control, 30 days) [%]
CCCCCc1cccc(=O)o1 [6PP, 6-Pentyl-α-pyrone]	Enhancement of the effect of Rhizobium lotii	Enhancement of nodule formation	7.1	17.6	22.04	21.8	75	+25%	42.3	25.9	31.1	
CCC/C=C/C=C/C(O)=C1/C(=O)C(CC(O)(C(=O)O)C(C)C)N(C)C1=O (centres unmarked) [HA, Harzianic acid]	Enhancement of the effect of Rhizobium lotii	Enhancement of nodule formation	7.6	13.6	23.36	27.4	75	+25%	46.1	30.1	10.7	8.4
